This is an account of results in EP0810207A1, “Bis-ortho-substituted benzoylguanidines, process for their preparation, their use as medicament or diagnostic agent and medicaments containing them” (HOECHST AKTIENGESELLSCHAFT, priority 1996, dated 1997).

pIC50: −log10 of the molar value. Where a name gives a salt, the structure may show the parent alone.

The target of the test is T1, Na^+/H^+-Exchangers von Kaninchenerythrocyten (Oryctolagus cuniculus, UniProt P23791).
T1 construct: den Na^+-Influx in die Erythrocyten via Na^+/H^+-Austausch flammenphotometrisch bestimmen zu können; from tissue; host or cells: Erythrocytes from ear-artery blood of cholesterol-fed New Zealand White rabbits
T1 sequence (P23791 whole entry): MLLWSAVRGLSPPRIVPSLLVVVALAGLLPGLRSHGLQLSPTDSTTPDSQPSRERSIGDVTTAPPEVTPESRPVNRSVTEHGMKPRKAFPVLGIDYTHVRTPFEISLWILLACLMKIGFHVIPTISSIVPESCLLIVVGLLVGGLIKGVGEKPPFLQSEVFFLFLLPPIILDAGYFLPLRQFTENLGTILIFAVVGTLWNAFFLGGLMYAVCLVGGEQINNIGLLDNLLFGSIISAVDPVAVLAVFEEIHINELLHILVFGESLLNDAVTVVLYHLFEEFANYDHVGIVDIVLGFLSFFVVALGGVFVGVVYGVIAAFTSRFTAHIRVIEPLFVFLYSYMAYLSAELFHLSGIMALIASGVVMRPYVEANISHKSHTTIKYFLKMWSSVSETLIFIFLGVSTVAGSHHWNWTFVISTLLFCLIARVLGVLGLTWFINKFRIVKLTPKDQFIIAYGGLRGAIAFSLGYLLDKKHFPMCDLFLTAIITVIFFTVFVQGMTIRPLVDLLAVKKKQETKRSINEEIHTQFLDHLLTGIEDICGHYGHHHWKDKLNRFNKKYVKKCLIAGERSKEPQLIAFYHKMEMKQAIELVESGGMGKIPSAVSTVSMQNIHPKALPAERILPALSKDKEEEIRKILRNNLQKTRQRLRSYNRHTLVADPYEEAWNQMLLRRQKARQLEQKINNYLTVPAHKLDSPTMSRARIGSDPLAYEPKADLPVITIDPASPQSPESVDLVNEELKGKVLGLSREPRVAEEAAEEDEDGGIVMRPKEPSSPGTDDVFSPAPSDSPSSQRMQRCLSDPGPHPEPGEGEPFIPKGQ
Nature of the test: Inhibition of the Na+/H+ exchanger of rabbit erythrocytes (amiloride-sensitive sodium influx, flame photometry). The test is classed as cell-based, Kaninchen. Conditions: hyperosmolar salt-sucrose medium, pH 7,4, 37°C, read-out: IC50 Inhibition des Na^+/H^+-Exchangers. The text has this:
Inhibition des Na^+/H^+-Exchangers von Kaninchenerythrocyten Weiße Neuseeland-Kaninchen (Ivanovas) erhielten eine Standard-Diät mit 2% Cholesterin für sechs Wochen, um den Na^+/H^+-Austausch zu aktivieren und so den Na^+-Influx in die Erythrocyten via Na^+/H^+-Austausch flammenphotometrisch bestimmen zu können. Das Blut wurde den Ohrarterien entnommen und durch 25 IE Kalium-Heparin ungerinnbar gemacht. Ein Teil jeder Probe wurde zur Doppelbestimmung des Hämatokrits durch Zentrifugieren benutzt. Aliquots von jeweils 100 µl dienten zur Messung des Na^+-Ausgangsgehalts der Erythrocyten.
Um den Amilorid-sensitiven Natrium-Influx zu bestimmen, wurden 100 µl jeder Blutprobe in jeweils 5 ml eines hyperosmolaren Salz-Sucrose-Mediums (mmol/l: 140 NaCl, 3 KCl, 150 Sucrose, 0,1 Ouabain, 20 Tris-hydroxymethylaminomethan) bei pH 7,4 und 37°C inkubiert. Die Erythrocyten wurden danach dreimal mit eiskalter MgCl2-Ouabain-Lösung (mmol/l: 112 MgCl2, 0,1 Ouabain) gewaschen und in 2,0 ml destilliertem Wasser hämolysiert. Der intrazelluläre Natriumgehalt wurde flammenphotometrisch bestimmt.
Der Na^+-Nettoinflux wurde aus der Differenz zwischen Natrium-Ausgangswerten und dem Natriumgehalt der Erythrocyten nach Inkubation errechnet. Der Amilorid-hemmbare Natrium-Influx ergab sich aus der Differenz des Natriumgehalts der Erythrocyten nach Inkubation mit und ohne Amilorid 3 x 10^-4 mol/l. Auf diese Weise wurde auch bei den erfindungsgemäßen Verbindungen verfahren.
Consider `COc1ccc(Cl)c(OC)c1C(=O)N=C(N)N` [Beispiel 2, 3-Chlor-2,6-dimethoxy-benzoylguanidin-hydrochlorid], for which the pIC50 is 5.07.

For the compound `COc1ccc(C(F)(F)F)c(OC)c1C(=O)N=C(N)N` [Beispiel 6, 3-Trifluormethyl-2,6-dimethoxy-benzoylguanidin-hydrochlorid], the pIC50 is less than 5.00.

`N=C(N)NC(=O)c1c(Cl)cccc1Cl` [Beispiel 1, 2,6-Dichlor-benzoylguanidin-hydrochlorid]: the pIC50 is 5.00.

In the case of `NC(N)=NC(=O)c1c(F)cccc1C(F)(F)F` [Beispiel 5, 2-Fluor-6-trifluormethyl-benzoylguanidin-hydrochlorid], the pIC50 was 5.00.

`NC(N)=NC(=O)c1c(F)c(F)c(O)c(F)c1F` [Beispiel 3, 4-Hydroxy-2,3,5,6-tetrafluor-benzoylguanidin-hydrochlorid]: the pIC50 was 6.52.

`NC(N)=NC(=O)c1c(F)cccc1F` [Beispiel 4, 2,6-Difluor-benzoylguanidin-hydrochlorid]: the pIC50 was less than 5.00.
